# Data from patent EP0129499B1, “13-Alpha-alkyl gonanes, their preparation and pharmaceutical compositions containing them” (SCHERING AKTIENGESELLSCHAFT, priority 1983, dated 1984).
# Assays:
# [1] = test system: weiblichen Ratten; assay: Abortive effect in an early phase post nidationem (Experiment I), treatment d 5-7 p.c., s.c.; type: in vivo; conditions: frühgravide Ratte; for Abortrate: Dosierungen ≧ 1,0 mg/d, absence of implants at d 9 p.c. counted as abortion
# Description: (§1) Zur Kennzeichnung der antigestagenen Wirkung der erfindungsgemässen Verbindungen wurde die abortive Wirkung in einer frühen Phase post nidationem (Experiment I) und in einer fortgeschrittenen Phase post nidationem (Experiment II) untersucht.
# (§2) Die Versuche wurden an weiblichen Ratten im Gewicht von ca. 200 g durchgeführt. Nach erfolgter Anpaarung wurde der Schwangerschaftsbeginn durch Nachweis von Spermien in Vaginalabstrichen gesichert. Der Tag des Spermiennachweises gilt als Tag 1 der Gravidität (= d 1 p.c.).
# (§3) Die Behandlung der Tiere mit der jeweils zu testenden Substanz bzw. dem Lösungsmittel erfolgte nach der Nidation der Blastocysten von d 5 p.c. bis d 7 p.c. (Experiment I) bzw. d 13 p.c. bis d 15 p.c. (Experiment II). An d 9 p.c. bzw. d 17 p.c. wurden die Tiere getötet und die Uteri auf Implantate und Resorptionsstellen hin untersucht. Von allen Uteri wurden Fotos angefertigt. Das Fehlen von Implantaten wurde als Abort gewertet.
# (§4) Als Antigestagene wurden untersucht: • A: 11β-(4-Dimethylaminophenyl)-17β-hydroxy- 17a-propinyl-4,9-estradien-3-on (Referenzsubstanz). • B: 11 β-(4-Dimethylaminophenyl)-17β-hydroxy-17a- (3-hydroxypropyl)-13a-methyl-4,9-go- nadien-3-on (gemäss Erfindung). • C: 11β-(4-Dimethylaminophenyl)-17α-hydroxy-17ß- (3-hydroxypropyl)-13a-methyl-4,9-go- nadien-3-on (gemäss Erfindung).
# Die Testsubstanzen wurden in einem Benzylbenzoat-Rizinusöl-Gemisch (Verhältnis 1:4) gelöst. Das Vehikelvolumen pro Einzeldosis betrug 0,2 ml. Die Behandlung erfolgte subcutan (s.c.). [drawing 1] worin [drawing 2] mit R^1 und R" in der Bedeutung von Wasserstoff oder Alkyl mit 1 bis 4 Kohlenstoffatomen oder R^I und R" unter Einschluss von N in der Bedeutung eines gesättigten 5- oder 6-gliedrigen Ringes, wobei im Ring ausser N noch ein weiteres Heteroatom wie 0, N, S enthalten sein kann, sowie die entsprechenden tertiären N-Oxide und die Säureadditionssalze, • -OR^III mit R"' in der Bedeutung von Methyl, Ethyl, Propyl, Methoxyphenyl, Allyl oder β-Dimethylaminoethyl, • R^2 ein Wasserstoffatom, eine Methyl- oder Ethylgruppe, • R^3-(CH2)n-CH3 mit n=0-4, • -(CH2)n-CH2-O(S)R^IV mit n=0-4 und R^IV in der Bedeutung von Wasserstoff oder Alkyl mit 1 bis 4 Kohlenstoffatomen, • -CH=CH-(CH2)n-OR^V mit n=1-4 und R^V in der Bedeutung von Wasserstoff, Alkyl oder Alkanoyl mit jeweils 1 bis 4 Kohlenstoffatomen, • -C≡C-X mit X in der Bedeutung von Wasserstoff, Alkyl mit 1 bis 4 Kohlenstoffatomen oder Halogen, • -(CH2)n-CH2CN mit n=0-3 oder [drawing 3] Y mit Y in der Bedeutung von Wasserstoff oder OR^v mit R^V in der oben angegebenen Bedeutung, • R^4 Hydroxy, Alkyloxy oder Alkanoyloxy mit jeweils 1 bis 4 Kohlenstoffatomen oder R^3/R4 [drawing 4] wobei R^3 in a-Stellung und R^4 in β-Stellung oder R^3 in β-Stellung und R^4 in a-Stellung zum Steroidgerüst stehen, und • R^5 ein Wasserstoffatom oder eine a- oder β-ständige Alkylgruppe mit 1 bis 4 Kohlenstoffatomen bedeuten. […]
# [2] = test system: weiblichen Ratten; assay: Abortive effect in an advanced phase post nidationem (Experiment II), treatment d 13-15 p.c., s.c.; type: in vivo; conditions: 3-day s.c. administration of 3,0 mg/d, rat
# Description: as §1, §2, §3, §4
# Die Testsubstanzen wurden in einem Benzylbenzoat-Rizinusöl-Gemisch (Verhältnis 1:4) gelöst. Das Vehikelvolumen pro Einzeldosis betrug 0,2 ml. Die Behandlung erfolgte subcutan (s.c.). […]
Structure (SMILES),Dosierung für voll abortive / maximale abortauslösende (antigestagene) Wirkung [1],Prozentsatz kompletter Aborte [2],Abortrate [1]
"CC#C[C@]1(O)CC[C@H]2[C@@H]3CCC4=CC(=O)CCC4=C3[C@@H](c3ccc(N(C)C)cc3)C[C@@]21C [A, 11β-(4-Dimethylaminophenyl)-17β-hydroxy-17a-propinyl-4,9-estradien-3-on, reference compound]","> 3,0 mg/d","3,5%",–
"CN(C)c1ccc([C@H]2C[C@]3(C)[C@@H](CC[C@@]3(O)CCCO)[C@@H]3CCC4=CC(=O)CCC4=C32)cc1 [B, 11 β-(4-Dimethylaminophenyl)-17β-hydroxy-17a-(3-hydroxypropyl)-13a-methyl-4,9-go-nadien-3-on]","≥ 1,0 mg/d","35,4%",4/4
"CN(C)c1ccc([C@H]2C[C@]3(C)[C@@H](CC[C@]3(O)CCCO)[C@@H]3CCC4=CC(=O)CCC4=C32)cc1 [C, 11β-(4-Dimethylaminophenyl)-17α-hydroxy-17ß-(3-hydroxypropyl)-13a-methyl-4,9-go-nadien-3-on]","≥ 1,0 mg/d","52,3%",4/4
